Assay results reported in patent publication US10487115B2, “Proteinaceous compounds and uses therefor” (UNIVERSITY OF CANBERRA, priority 2016, dated 2019).
* marks the point of attachment. Myristoyl = CCCCCCCCCCCCCC(=O)*

How the values were obtained:
PKC-θ = target: T1, PKC-θ (Homo sapiens, UniProt Q04759); assay: Nuclear translocation of PKC-θ in PMA-stimulated MCF7 cells (immunofluorescence, Fn/c); format: cell-based
T1 construct: endogenous in cells; host or cells: MCF7
Protocol: (§1) MCF7 cells were pre-seeded overnight on sterile coverslips in 12 well plates with 1 mL of completed Dulbecco's modified eagle medium (DMEM) before incubating with 50 μM of importinib4759 (synthesized in accordance with Example 1) and importinib4759_O1 (synthesized in accordance with Example 1) for 24 hr. Test peptides were not removed when MCF7 cells were stimulated with 0.65 ng/mL of phorbol 12-myristate 13-acetate (PMA) for 60 hr. Diethylpyrocarbonate (DEPC)-water was used for control (test peptides were dissolved in sterile DEPC-water). After wash with Dulbecco's phosphate buffered saline (DPBS) twice, samples on coverslips were fixed with 4% paraformaldehyde for 10 minutes and stained with PKC-θ (Cat. SC-212), PKC-θ-Phosphor-T538, PKC-β2, PKC-α, Importin α, or Importin 8 primary Antibody respectively and conjugated Alexa-488 secondary Antibody. Cell nucleus was stained with anti-fade 2-(4-amidinophenyl)-6-indolecarbamidine dihydrochloride (DAPI). When samples were dried overnight, Nikon fluorescence microscopy was used to take photos. ImageJ software was used for densimetric analysis. Fn/c was calculated using the formula: Fn/c=(nuclear density-background density)/(cytoplasmic density-background density).

PKC-α = target: T2, PKC-α (Homo sapiens, UniProt P17252); assay: Localization of PKC-α in PMA-stimulated MCF7 cells (immunofluorescence, Fn/c); format: cell-based; settings: 50 μM, p=not significant relative to control
T2 construct: endogenous in cells; host or cells: MCF7
Protocol: as §1

PKC-β2 = target: T3, PKC-β2 (Homo sapiens, UniProt P05771); assay: Localization of PKC-β2 in PMA-stimulated MCF7 cells (immunofluorescence, Fn/c); format: cell-based; settings: 50 μM, p=not significant relative to control
T3 construct: endogenous in cells; host or cells: MCF7
Protocol: as §1

Importin α = assay: Localization of Importin α in PMA-stimulated MCF7 cells (immunofluorescence, Fn/c); format: cell-based, human; settings: 50 μM, p=not significant relative to control
Protocol: as §1

Importin 8 = target: T4, Importin 8 (Homo sapiens, UniProt O15397); assay: Localization of Importin 8 in PMA-stimulated MCF7 cells (immunofluorescence, Fn/c); format: cell-based; settings: 50 μM, p=not significant relative to control
T4 construct: endogenous in cells; host or cells: MCF7
Protocol: as §1

MCF7 cells = assay: CD44hiCD24lo cancer stem cell formation in MCF-IM model (FACS); format: cell-based, human; settings: importinib4759 5004 and 100 μM, importinib4759_O1 2504 and 50 μM, 24 hr before PMA 60 hr, p=0.0079 relative to control
Protocol: (§2) 5×10^4 MCF7 cells were seeded with 1 mL of complete DMEM in 12 well plates overnight, then importinib4759 (5004 and 100 μM; synthesized in accordance with Example 1) or importinib4759_O1 (2504 and 50 μM; synthesized in accordance with Example 1) were used to treat cells for 24 hr before stimulation with PMA for 60 hr. Samples were harvested by trypsinization followed by washing with DPBS containing 2% heat inactivated foetal bovine serum (HI-FBS). FACS staining were performed using anti-human CD44-APC, anti-human CD24-PE, Hoechst, and anti-human EpCAM antibody cocktails. Data was collected from BD FACSLSR-II flow cytometer. Treestar FlowJo was used for data analysis.

MDA-MB-231 cells = assay: Live cell population after treatment, MDA-MB-231 cells (FACS); format: cell-based, human; settings: 48 hr treatment, p<0.0001 relative to control
Protocol: as §2, with “5×10^4 MDA-MB-231” for “5×10^4 MCF7”, “for 48” for “for 24”, “before samples” for “before stimulation with PMA for 60 hr. Samples”, “2% HI-FBS.” for “2% heat inactivated foetal bovine serum (HI-FBS).”, “staining was” for “staining were”

MCF7 epithelial cells = assay: Live cell population after treatment, MCF7 cells (FACS); format: cell-based, human; settings: same concentration of inhibitor as in MDA-MB-231 cells
Protocol: as §2
as §2, with “5×10^4 MDA-MB-231” for “5×10^4 MCF7”, “for 48” for “for 24”, “before samples” for “before stimulation with PMA for 60 hr. Samples”, “2% HI-FBS.” for “2% heat inactivated foetal bovine serum (HI-FBS).”, “staining was” for “staining were”

NF-κB p65 = assay: Nuclear expression of NF-κB p65 in PMA-stimulated MCF7 cells (immunofluorescence, Fn/c); format: cell-based, human; settings: 50 μM 24 hr, PMA 60 hr, p=0.0033
Protocol: (§3) MCF7 cells were pre-seeded overnight on sterile coverslips in 12 well plates with 1 mL of completed DMEM before inhibiting with 50 μM of importinib4759_O1 (synthesized in accordance with Example 1) for 24 hr. Importinib4759_O1 was removed when MCF7 cells were stimulated with 0.65 ng/mL of PMA for 60 hr. DEPC-water was used as the control (importinib4759_O1 was dissolved in sterile DEPC-water). After washing with DPBS twice, samples on coverslips were fixed with 4% paraformaldehyde for 10 minutes and stained with p65, Rb, or p53 primary Antibody and conjugated Alexa-488 secondary Antibody. Cell nucleus was stained with anti-fade DAPI. When samples were dried overnight, Nikon fluorescence microscopy was used to take photos. ImageJ software was used for densimetric analysis. Fn/c was calculated using the formula: Fn/c=(nuclear density-background density)/(cytoplasmic density-background density).

p53 = assay: Nuclear expression of p53 in PMA-stimulated MCF7 cells (immunofluorescence, Fn/c); format: cell-based, human; settings: 50 μM 24 hr, PMA 60 hr, p=0.0009
Protocol: as §3

Rb = assay: Expression of tumor suppressor protein Rb in PMA-stimulated MCF7 cells (immunofluorescence, Fn/c); format: cell-based, human; settings: 50 μM 24 hr, PMA 60 hr, p=0.0007
Protocol: as §3

MDA-MB-231 xenograft = assay: Balb/c-nude MDA-MB-231 xenograft breast cancer model: tumor volume and cancer stem cell proportion; format: in vivo, balb/c-nude mice
Protocol: A Balb/c-nude MDA-MB-231 xenograft breast cancer model was utilized to determine the effect of the importinib peptides alone and in combination with the chemotherapeutic, docetaxel in comparison to a randomized peptide control.
Five week old balb/c-nude mice (n=5 per test compound) were injected with MDA-MB-231 human breast carcinoma cell suspensions (2×10^6 cells in 25 μL PBS mixed with 25 μL of BD Matrigel Matrix) subcutaneously into the right mammary gland. Test compounds in a saline vehicle [4 mg/kg docetaxel; 8 mg/kg, 40 mg/kg and 60 mg/kg importinib4759 or importinib4759_O1 (synthesized in accordance with Example 1); 4 mg/kg docetaxel with 8 mg/kg importinib4759 or importinib4759_O1; 4 mg/kg docetaxel with 40 mg/kg importinib4759 or importinib4759_O1; 4 mg/kg docetaxel with 60 mg/kg importinib4759 or importinib4759_O1; or randomized peptide control] were injected intraperitoneally. Tumor volume was assessed using calipers daily over a period of five weeks following treatment. Animals were sacrificed after the five week period. Tumor grafts were removed using resection and processed into single cell suspensions. The percentage of cancer stem cells was determined using FACS analysis. FACS staining was performed using anti-human CD44-APC, anti-human CD24-PE, Hoechst, and anti-human EpCAM antibody cocktails. Data was collected from BD FACSLSR-II flow cytometer. Treestar FlowJo was used for data analysis. Significance was determined using a one-way ANOVA or Mann-Whitney T-test.

T1 sequence (Q04759 whole entry): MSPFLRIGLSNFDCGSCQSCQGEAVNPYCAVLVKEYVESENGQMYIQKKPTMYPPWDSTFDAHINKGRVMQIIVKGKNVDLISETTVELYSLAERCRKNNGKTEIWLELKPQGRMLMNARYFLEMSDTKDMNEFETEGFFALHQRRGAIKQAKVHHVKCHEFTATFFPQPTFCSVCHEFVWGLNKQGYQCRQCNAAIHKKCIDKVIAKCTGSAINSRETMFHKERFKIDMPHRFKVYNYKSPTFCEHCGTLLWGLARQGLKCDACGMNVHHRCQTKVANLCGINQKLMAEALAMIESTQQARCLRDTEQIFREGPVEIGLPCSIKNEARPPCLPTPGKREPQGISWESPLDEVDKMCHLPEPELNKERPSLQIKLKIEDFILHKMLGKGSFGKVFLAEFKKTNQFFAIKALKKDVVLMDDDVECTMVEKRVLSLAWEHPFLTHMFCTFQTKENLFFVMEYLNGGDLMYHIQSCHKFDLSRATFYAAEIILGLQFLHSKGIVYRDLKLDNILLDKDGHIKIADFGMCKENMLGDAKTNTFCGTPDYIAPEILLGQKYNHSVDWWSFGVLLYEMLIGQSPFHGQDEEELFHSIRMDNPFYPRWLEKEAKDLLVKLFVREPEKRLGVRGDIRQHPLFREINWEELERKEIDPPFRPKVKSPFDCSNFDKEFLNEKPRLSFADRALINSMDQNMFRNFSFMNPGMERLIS
T3 sequence (P05771 1-673 isoform P05771-2): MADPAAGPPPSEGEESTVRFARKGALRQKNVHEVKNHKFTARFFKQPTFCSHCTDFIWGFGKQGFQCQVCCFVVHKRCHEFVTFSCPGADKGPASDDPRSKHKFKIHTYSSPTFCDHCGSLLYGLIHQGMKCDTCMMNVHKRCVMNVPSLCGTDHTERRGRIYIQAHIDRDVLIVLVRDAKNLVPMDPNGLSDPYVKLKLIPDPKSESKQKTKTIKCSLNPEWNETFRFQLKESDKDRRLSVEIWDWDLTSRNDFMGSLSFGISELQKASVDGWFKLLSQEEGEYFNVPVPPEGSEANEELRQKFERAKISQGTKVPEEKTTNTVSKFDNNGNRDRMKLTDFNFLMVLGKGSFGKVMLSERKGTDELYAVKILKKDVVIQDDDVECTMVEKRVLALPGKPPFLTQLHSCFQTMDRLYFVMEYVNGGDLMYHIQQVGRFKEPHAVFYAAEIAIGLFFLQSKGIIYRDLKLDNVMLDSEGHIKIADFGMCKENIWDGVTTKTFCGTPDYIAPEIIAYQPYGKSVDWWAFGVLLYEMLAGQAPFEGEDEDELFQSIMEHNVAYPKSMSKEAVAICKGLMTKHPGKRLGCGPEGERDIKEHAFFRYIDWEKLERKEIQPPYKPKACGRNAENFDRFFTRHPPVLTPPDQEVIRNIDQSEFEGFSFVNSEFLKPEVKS
T4 sequence (O15397 whole entry): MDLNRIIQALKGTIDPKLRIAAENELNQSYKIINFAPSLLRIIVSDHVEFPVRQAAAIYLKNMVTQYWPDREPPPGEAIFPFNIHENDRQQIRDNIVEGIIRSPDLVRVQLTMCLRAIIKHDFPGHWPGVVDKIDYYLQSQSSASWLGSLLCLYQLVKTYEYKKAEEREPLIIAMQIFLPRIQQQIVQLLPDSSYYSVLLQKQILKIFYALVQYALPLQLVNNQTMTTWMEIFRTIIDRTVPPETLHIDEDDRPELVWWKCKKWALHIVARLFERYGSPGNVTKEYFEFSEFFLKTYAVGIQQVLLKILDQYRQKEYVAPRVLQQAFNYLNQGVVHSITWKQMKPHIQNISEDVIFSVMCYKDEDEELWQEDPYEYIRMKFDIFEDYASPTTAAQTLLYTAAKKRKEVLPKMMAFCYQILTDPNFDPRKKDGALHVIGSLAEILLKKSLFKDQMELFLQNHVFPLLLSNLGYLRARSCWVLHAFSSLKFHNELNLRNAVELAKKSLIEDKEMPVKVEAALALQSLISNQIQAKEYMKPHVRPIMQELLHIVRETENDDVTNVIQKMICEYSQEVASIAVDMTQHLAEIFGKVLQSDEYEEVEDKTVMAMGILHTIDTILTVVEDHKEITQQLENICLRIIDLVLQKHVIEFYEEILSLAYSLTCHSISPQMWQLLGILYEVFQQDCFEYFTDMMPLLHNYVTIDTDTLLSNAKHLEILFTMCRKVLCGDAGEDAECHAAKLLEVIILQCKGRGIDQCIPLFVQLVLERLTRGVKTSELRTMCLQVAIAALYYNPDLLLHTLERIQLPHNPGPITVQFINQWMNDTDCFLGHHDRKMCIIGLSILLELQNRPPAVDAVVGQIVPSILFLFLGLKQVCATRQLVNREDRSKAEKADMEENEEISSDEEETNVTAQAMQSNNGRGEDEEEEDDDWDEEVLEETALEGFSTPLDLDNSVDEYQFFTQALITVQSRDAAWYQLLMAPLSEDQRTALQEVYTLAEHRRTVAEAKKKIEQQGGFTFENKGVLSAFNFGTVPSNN

RRKRIDWPPRRKPK-OH (Myristoyl-RRKRIDWPPRRKPK-OH; SMILES CCCCCCCCCCCCCC(=O)N[C@@H](CCCNC(=N)N)C(=O)N[C@@H](CCCNC(=N)N)C(=O)N[C@@H](CCCCN)C(=O)N[C@@H](CCCNC(=N)N)C(=O)N[C@H](C(=O)N[C@@H](CC(=O)O)C(=O)N[C@@H](Cc1c[nH]c2ccccc12)C(=O)N1CCC[C@H]1C(=O)N1CCC[C@H]1C(=O)N[C@@H](CCCNC(=N)N)C(=O)N[C@@H](CCCNC(=N)N)C(=O)N[C@@H](CCCCN)C(=O)N1CCC[C@H]1C(=O)N[C@@H](CCCCN)C(=O)O)[C@@H](C)CC) [Importinib4759_O1, tested N-myristoylated]
blocking of nuclear PKC-θ (nuclear translocation) (PKC-θ; 50 μM peptide 24 hr, then PMA 0.65 ng/mL 60 hr, N-myristoylated peptides, p<0.0001 relative to control): capable of blocking nuclear PKC-θ
capacity to prevent PKC-θ nuclear translocation compared to importinib4759 (PKC-θ; 50 μM, PMA stimulated): significantly higher capacity to prevent PKC-θ nuclear translocation compared to importinib4759
effect on distribution of PKC-α (PKC-α): had no effect
effect on distribution of PKC-β2 (PKC-β2): had no effect
effect on distribution of Importin α (Importin α): had no effect
effect on distribution of Importin 8 (Importin 8): had no effect
cancer stem cell (CD44hiCD24lo) formation (MCF7 cells): inhibited
effect on live cell population of MDA-MB-231 cells (MDA-MB-231 cells): cleared virtually all MDA-MB-231 cells
effect on live cell population of MCF7 epithelial cells (MCF7 epithelial cells): minimal effect
nuclear expression of NF-κB p65 (NF-κB p65): significantly inhibited nuclear expression
nuclear expression of p53 (p53): significantly inhibited nuclear expression
expression of tumor suppressor protein Rb (Rb): enhanced expression
cancer stem cell (CD44highCD24low) population in tumor grafts (MDA-MB-231 xenograft; FACS of resected tumor grafts after five weeks): significantly abrogated the cancer stem cell population
tumor volume in comparison to the control or docetaxel treatment alone (MDA-MB-231 xenograft; intraperitoneal, peptide 8, 40 and 60 mg/kg, docetaxel 4 mg/kg, five weeks): abrogated tumor volume
tumor volume over time (MDA-MB-231 xenograft; intraperitoneal, peptide 8, 40 and 60 mg/kg, docetaxel 4 mg/kg, five weeks, n=5): reduced tumor volume over time
